Results from BigSolDB 2.1.

CCCCCCCCCCCC[N+](C)(C)CCOc1ccccc1.[Br-]
solubility (mole fraction)
Conditions | 283.15 K | 288.15 K | 293.15 K | 298.15 K | 303.15 K | 308.15 K | 313.15 K | 318.15 K | 323.15 K
in DMAc | 0.0168 | 0.0216 | 0.0306 | 0.0416 | 0.0492 | 0.0659 | 0.0786 | 0.105 | 0.121
in DMF | 0.0238 | 0.0292 | 0.039 | 0.0467 | 0.0609 | 0.0714 | 0.0861 | 0.115 | 0.132
in DMSO | – | – | 0.037 | 0.045 | 0.0551 | 0.0668 | 0.0826 | 0.103 | 0.124
in NMP | 0.0215 | 0.0284 | 0.042 | 0.0531 | 0.0702 | 0.0854 | 0.108 | 0.137 | 0.169
in acetonitrile | 0.00445 | 0.00562 | 0.00743 | 0.00991 | 0.0135 | 0.0188 | 0.0277 | 0.0415 | 0.0625
in ethanol | 0.0832 | 0.107 | 0.13 | 0.157 | 0.179 | 0.204 | 0.227 | 0.251 | 0.275
in isobutanol | – | 0.092 | 0.118 | 0.145 | 0.175 | 0.196 | 0.224 | 0.248 | 0.287
in isopropanol | 0.0234 | 0.043 | 0.07 | 0.105 | 0.139 | 0.17 | 0.199 | 0.228 | 0.258
in n-butanol | 0.0833 | 0.108 | 0.134 | 0.157 | 0.181 | 0.224 | 0.263 | 0.306 | 0.346
in n-pentanol | 0.0801 | 0.108 | 0.13 | 0.164 | 0.192 | 0.232 | 0.272 | 0.329 | 0.373
in n-propanol | 0.0834 | 0.107 | 0.131 | 0.157 | 0.181 | 0.211 | 0.238 | 0.263 | 0.287
in tert-butanol | – | – | – | 0.0866 | 0.127 | 0.165 | 0.198 | 0.241 | 0.273
